Assay results reported in US11701369B2, “Polymeric bile acid derivatives inhibit Hepatitis B and D virus and NTCP transport” (Huahui Health Ltd., priority 2014, dated 2023).
Entries after “also recorded” stand apart in the source; their conditions may differ.

Legend:
HBV [1] = experiment: HBV infection assay on HepaRG cells (HBsAg and HBeAg ELISA); assay type: cell-based, Hepatitis B virus; conditions: HBsAg and HBeAg at 5 dpi
Experimental: FIG. 11 HepaRG cells were infected with HBV in the presence of indicated PBADs. The level of secreted HBsAg and HBeAg was detected by ELISA at 5 dpi.
The antiviral potency of PBADs is also repeatable on other HBV infection system (HepaRG) with similar inhibition profile. […] HBV infection was conducted in the presence of NQL028, NQL018, NQL029, NQL019 and NQL021, all of which were bis-ester based PBADs with different linkage length.

HBV [2] = experiment: HBV infection assay on HepG2-NTCP cells (secreted HBeAg by ELISA); assay type: cell-based, Hepatitis B virus; conditions: HepG2-NTCP cells, secreted HBeAg
Experimental: (§1) HBV and HDV infection assay. HepG2NTCP Cells were cultured in PMM for 12-24 hrs before infection, and then inoculated with 200 multiplicities of genome equivalents (mge) of HBV, or 500 mge of HDV in the presence of 5% PEG8000 in PMM at 37° C. for about 24 hrs. Chemicals to be tested were added to the cells as indicated in the specific assays. The inoculum was replenished by PMM post infection. The infections were detected at day 5 post infection (dpi).
ELISA assay for the detection of HBeAg and HBsAg. ELISA kits for HBeAg and HBsAg detection were from Wantai Pharm Inc. (Beijing, China). Supernatant from infected HepG2NTCP cells was collected on 2-5 days post infection. The secreted HBeAg and HBsAg in the culture medium was measured with a commercial kit from Wantai Pharm Inc (Beijing, China) by following the manufactory's instructions.

HDV = HDV infection assay on HepG2-NTCP cells (intracellular delta antigen staining); assay type: cell-based, Hepatitis D virus
Experimental: as §1
Immunostaining assay. For HBV infection, infected cells were washed twice with PBS and fixed in 3.7% paraformaldehyde (PFA) at room temperature for 10 mins. Subsequently, cells were permeabilized with 0.5% Trition X-100/PBS for 10 mins at room temperature, blocked with 3% BSA at 37° C. for 1 hour, and followed by incubating with 5 μg/ml mouse mAb1C10 which recognizes HBcAg, and followed by staining with FITC-conjugated secondary antibody. Nucleus was stained with DAPI in blue. The stained cells were imaged with the fluorescence microscope (Nikon). For HDV infection, on 5 dpi, HDV infected cells were fixed with 100% methanol at room temperature for 10 mins, intracellular delta antigens were then stained with 5 μg/ml of FITC conjugated 4G5 and nucleus were stained with DAPI in blue. Images were collected by an Eclipse Ti Fluorescence Microscope (Nikon) and a representative picture is shown.

NTCP = biological target: T1, NTCP (Homo sapiens, UniProt Q14973); experiment: [3H] taurocholate uptake assay on HepG2-NTCP cells; assay type: cell-based; conditions: co-incubation assay, [3H] taurocholate, 10 min
T1 construct: expressed in transfected cells
T1 sequence (Q14973 1-349): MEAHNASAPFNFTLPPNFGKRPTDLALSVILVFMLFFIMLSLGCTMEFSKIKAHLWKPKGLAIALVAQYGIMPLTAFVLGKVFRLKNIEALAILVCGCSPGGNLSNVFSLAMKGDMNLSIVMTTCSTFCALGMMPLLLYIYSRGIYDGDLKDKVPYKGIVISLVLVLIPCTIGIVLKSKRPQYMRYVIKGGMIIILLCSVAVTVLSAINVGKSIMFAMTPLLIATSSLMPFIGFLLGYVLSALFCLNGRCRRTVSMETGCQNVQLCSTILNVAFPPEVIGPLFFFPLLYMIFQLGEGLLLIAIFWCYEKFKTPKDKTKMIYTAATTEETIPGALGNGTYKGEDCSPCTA
Experimental: [3H] substrate uptake assay. [3H]taurocholate uptake assay was conducted following a protocol as previously described(60). In general, HepG2-NTCP cells were cultured in PMM for 12-24 hrs, then were treated with or without indicated chemicals before uptake assay. For substrate uptake assay, cells were generally incubated with 0.5 μl (0.5 μCi) [3H]-taurocholate dissolved in Na+ Ringer's solutions for 10 mins at 37° C. with or without the presence of chemicals. Subsequently, cells were washed once by PBS and lysed by 100 μl of 1% TritonX-100 in H2O for 5 mins at room temperature. The lysate was transferred into liquid scintillation tube and mixed with 900 μl liquid scintillation cocktail (Ultima GOLD™ XR) (Perkin Elmer, USA). Liquid scintillation counting was performed on a Perkin Elmer 1450 LSC Liquid Scintillation Counter and Luminescence Counter.

HBV [3] = experiment: In vitro stability: incubation with HBV inocula before infection, HBeAg ELISA; assay type: cell-based, Hepatitis B virus; conditions: incubated with HBV inocula for different times before infection, HBeAg at 5 dpi
Experimental: FIG. 10 The influence of the linkage groups on the in vitro stability of PBADs. TUDCA, NQL018, NQL044, and NQL055 were incubated with HBV inocula of different times before viral infection, and present in the inocula during infection period. The level of secreted HBeAg was detected by ELISA at 5 dpi.
The in vitro stability of PBADs could PBADs could be enhanced by optimization of the linkage bond. We conducted stability analysis of several PBADs with similar structure but of different linkage. […] This indicates the in vitro and in vivo stability is to a large extent determined by the feature of the linkage groups.

| SMILES | inhibition of HBV infection (in words) (HBV [2]) | also measured |
| --- | --- | --- |
| C[C@H](CCC(=O)NCCS(=O)(=O)O)[C@H]1CC[C@H]2[C@@H]3[C@@H](O)CC4C[C@H](OC(=O)CCCCCC(=O)O[C@@H]5CC[C@@]6(C)C(C5)C[C@H](O)[C@H]5[C@@H]7CC[C@H]([C@H](C)CCC(=O)NCCS(=O)(=O)O)[C@@]7(C)CC[C@@H]56)CC[C@]4(C)[C@H]3CC[C@]12C (stereo in doubt) [NQL-019] |  | inhibition of HBV infection on HepaRG cells (in words) (HBV [1]): inhibited HBV infection |
| C[C@H](CCC(=O)NCCS(=O)(=O)O)[C@H]1CC[C@H]2[C@@H]3[C@@H](O)CC4C[C@H](OC(=O)CCC(=O)O[C@@H]5CC[C@@]6(C)C(C5)C[C@H](O)[C@H]5[C@@H]7CC[C@H]([C@H](C)CCC(=O)NCCS(=O)(=O)O)[C@@]7(C)CC[C@@H]56)CC[C@]4(C)[C@H]3CC[C@]12C (stereo in doubt) [NQL-028] |  | inhibition of HBV infection on HepaRG cells (in words) (HBV [1]): inhibited HBV infection |
| C[C@H](CCC(=O)NCCS(=O)(=O)O)[C@H]1CC[C@H]2[C@@H]3[C@@H](O)CC4C[C@H](OC(=O)CCCCC(=O)O[C@@H]5CC[C@@]6(C)C(C5)C[C@H](O)[C@H]5[C@@H]7CC[C@H]([C@H](C)CCC(=O)NCCS(=O)(=O)O)[C@@]7(C)CC[C@@H]56)CC[C@]4(C)[C@H]3CC[C@]12C (stereo in doubt) [NQL-029] |  | inhibition of HBV infection on HepaRG cells (in words) (HBV [1]): inhibited HBV infection |
| C[C@H](CCC(=O)NCCS(=O)(=O)O)[C@H]1CC[C@H]2[C@@H]3[C@@H](O)CC4CC5(CC[C@]4(C)[C@H]3CC[C@]12C)N=N5 (stereo partly shown) [3-Diz-TUDCA] | did not show significantly improved inhibitory efficiency over the natural monomeric TUDCA |  |
| CC(=O)O[C@@H]1CC[C@@]2(C)C(C1)C[C@H](O)[C@H]1[C@@H]3CC[C@H]([C@H](C)CCC(=O)NCCS(=O)(=O)O)[C@@]3(C)CC[C@@H]12 (stereo partly shown) [3-OAc-TUDCA] | did not show significantly improved inhibitory efficiency over the natural monomeric TUDCA |  |
| C[C@H](CCC(=O)NCCS(=O)(=O)O)[C@H]1CC[C@H]2[C@H]3[C@H](CC[C@]12C)[C@@]1(C)CC[C@@H](O)CC1CC31N=N1 (stereo partly shown) [7-Diz-TUDCA] | did not show significantly improved inhibitory efficiency over the natural monomeric TUDCA |  |
| C[C@H](CCC(=O)OCCCCC[C@@H]1SC[C@@H]2NC(=O)N[C@@H]21)[C@H]1CC[C@H]2C3[C@@H](O)CC4C[C@H](O)CC[C@]4(C)[C@H]3CC[C@]12C (stereo partly shown) [Biotin-UDCA] | did not show significantly improved inhibitory efficiency over the natural monomeric TUDCA |  |
| CCN(CCCN(C)C)C(=O)OC(=O)CC[C@@H](C)[C@H]1CC[C@H]2[C@@H]3[C@@H](O)CC4C[C@H](O)CC[C@]4(C)[C@H]3CC[C@]12C (stereo partly shown) [CA-UDCA, Carbamic-UDCA] | did not show significantly improved inhibitory efficiency over the natural monomeric TUDCA |  |
| C[C@H](CCC(=O)NCCCC1(C)N=N1)[C@H]1CC[C@H]2[C@@H]3[C@@H](O)CC4C[C@H](O)CC[C@]4(C)[C@H]3CC[C@]12C (stereo partly shown) [Diz-UDCA, Diz-Ursodeoxycholic acid] | did not show significantly improved inhibitory efficiency over the natural monomeric TUDCA |  |
| C[C@H](CCC(=O)NCCS(=O)(=O)O)[C@H]1CC[C@H]2[C@@H]3[C@@H](O)CC4C[C@@H](O)CC[C@]4(C)[C@H]3CC[C@]12C (stereo partly shown) [Iso-TUDCA, Iso-tauroursodeoxycholic acid] | did not show significantly improved inhibitory efficiency over the natural monomeric TUDCA |  |
| C[C@H](CCC(=O)NCCS(=O)(=O)O)[C@H]1CC[C@@H]2C3[C@@H](OC(=O)CC[C@@H](C)[C@H]4CC[C@@H]5C6[C@@H](CC[C@@]54C)[C@@]4(C)CC[C@H](O)CC4C[C@@H]6O)CC4C[C@@H](O)CC[C@]4(C)[C@@H]3CC[C@@]21C (stereo partly shown) [NQL-015] | high antiviral activity; also recorded: greatly improved potency | inhibition of HDV infection (in words) (HDV): high antiviral activity; also recorded: greatly improved potency; inhibition of NTCP substrate uptake (in words) (NTCP): significantly higher efficiency than that of TUDCA |
| C[C@H](CCC(=O)NCCS(=O)(=O)O)[C@H]1CC[C@H]2[C@@H]3[C@@H](O)CC4CC(NC(=O)CCCC(=O)NC5CC[C@@]6(C)C(C5)C[C@H](O)[C@H]5[C@@H]7CC[C@H]([C@H](C)CCC(=O)NCCS(=O)(=O)O)[C@@]7(C)CC[C@@H]56)CC[C@]4(C)[C@H]3CC[C@]12C (stereo partly shown) [NQL-021] |  | inhibition of HBV infection on HepaRG cells (in words) (HBV [1]): inhibited HBV infection |
| C[C@H](CCC(=O)NCCS(=O)(=O)O)[C@H]1CC[C@H]2[C@@H]3[C@@H](O)CC4C[C@H](NC(=O)CCCC(=O)N[C@@H]5CC[C@@]6(C)C(C5)C[C@H](O)[C@H]5[C@@H]7CC[C@H]([C@H](C)CCC(=O)NCCS(=O)(=O)O)[C@@]7(C)CC[C@@H]56)CC[C@]4(C)[C@H]3CC[C@]12C (stereo partly shown) [NQL-044] | high antiviral activity | in vitro stability (antiviral potency after long incubation with the inoculum) (HBV [3]): much more stable as no significant potency decrease was observed; inhibition of HDV infection (in words) (HDV): high antiviral activity |
| C[C@H](CCC(=O)NCCS(=O)(=O)O)[C@H]1CC[C@H]2[C@@H]3[C@@H](O)CC4C[C@H](OCc5cn([C@@H]6CC[C@@]7(C)C(C6)C[C@H](O)[C@H]6[C@@H]8CC[C@H]([C@H](C)CCC(=O)NCCS(=O)(=O)O)[C@@]8(C)CC[C@@H]67)nn5)CC[C@]4(C)[C@H]3CC[C@]12C (stereo partly shown) [NQL-055] |  | in vitro stability (antiviral potency after long incubation with the inoculum) (HBV [3]): much more stable as no significant potency decrease was observed |
| C[C@H](CCC(=O)NCCS(=O)(=O)O)[C@H]1CC[C@H]2[C@@H]3[C@@H](O)CC4C[C@H](O)CC[C@]4(C)[C@H]3CC[C@]12C (stereo partly shown) [TUDCA, Tauroursodeoxycholic acid, reference compound] | most potent one among all bile acid derivatives tested |  |
